# Source: patent publication US9428791B2, “Probes of RNA structure and methods for using the same” (The Board of Trustees of the Leland Stanford Junior …, priority 2012, dated 2016)
# Read-outs that look alike come from different tables or passages of the source.
# How the values were obtained:
# ATP [1] = system: ATP
# Experimental: Briefly, 10,000 cpm/uL of radiolabeled ATP is incubated with increasing amounts of NAI or FAI (10% final volume) in 100 mM HEPES buffer, pH 8.0, containing 6 mM MgCl2, 100 mM NaCl. Reactions are stopped by addition of an equal volume of Gel Loading Buffer 11 (Ambion, Inc.) and placed on ice. […] Single adduct reaction rates and percentages are calculated by integrating bands (Image Quant, IM Support) and fit to a single exponential.
# human 5S rRNA = assay: Acylation of 5S rRNA in vitro (SHAPE)
# Experimental: Acylation of RNA, in vitro. In a typical in vitro modification protocol, 6 μg total RNA is heated in metal-free water for two minutes at 95° C. The RNA is then flash-cooled on ice. The RNA 3× SHAPE buffer (333 mM HEPES, pH 8.0, 20 mM MgCl2, 333 mM NaCl) is added and the RNA allowed to equilibrate at 37° C. for ten minutes. To this mixture, 1 μL of 10× electrophile stock in DMSO (+) or DMSO (−) is added. The reaction is permitted to continue until the desired time. Reactions are quenched with 60 μL of DMS stop solution (0.5 M β-mercaptoethanol, 0.75 M Na.acetate, pH 5.5). Reactions are extracted once with acid phenol:chloroform (pH 4.5±0.2) and twice with chloroform. RNA is precipitated with 40 μL of 3M sodium acetate buffer (pH 5.2) and 1 μL of glycogen (20 ug/uL).
# (§1) Extensions are performed for ten minutes.
# HOTAIR = assay: Secondary structure probing of in vitro transcribed HOTAIR RNA; conditions: 5′ end of HOTAIR
# Experimental: ABI-1 as a probe of RNA secondary structure. To evaluate the compound's ability to modify RNA at conformationally flexible positions ABI-1 was tested in comparison to NMIA. […] After incubation, the RNA was extracted and precipitated with ethanol.
# ABI-1 Reversible Modification and Cell-Permeability. […] FIG. 15A.
# Solubility = format: physicochemical
# ATP [2] = conditions: see Weeks et al., J. Am. Chem. Soc. 127, 4223-4231, 2005; cited from earlier work
# 5S rRNA [3] = format: cell-based; conditions: cultured human cancer cells
# Experimental: (§2) Cells are then spun down and decanted. […] Extensions are performed for ten minutes.
# 5S rRNA [4] = assay: Acylation of RNA in yeast cells; format: cell-based, Saccharomyces cerevisiae
# Experimental: Acylation of RNA in yeast cells. […] Yeast cells are grown to an OD600 of 1.0 at 30° C. in YPD medium. Cells are spun down at 4000×g and decanted. […] Cells are then spun down, decanted, and flash frozen in liquid nitrogen. Frozen pellets are resuspended in 500 uL of 50 mM NaOAc pH5.0, 10 mM EDTA pH 8.0 and 100 uL of 10% SDS. […] Cells are incubated at 65° C. for 1 minute. The freeze thaw cycle is repeated three times.
# as §1
# 5S rRNA [5] = format: cell-based, mouse
# Experimental: as §2
# ATP [6] = assay: ATP gel shift acylation
# Source text: ATP gel shift. […] Chem. Soc. 127, 4223-4231, (2005).
# [7] = Hydrolysis of NAI and FAI in aqueous buffer (absorbance decay); format: physicochemical; conditions: 100 mM HEPES, 100 mM NaCl, 10 mM MgSO4, pH 8.0; fit f=y0+a*exp(−b*x); in 1/min
# Experimental: Hydrolysis of NAI and FAI. Hydrolysis of NAI and FAI is monitored by adding 1.5 μL of a 100 mM solution of either NAI or FAI in spectroscopic grade DMF to 598.5 μL of buffer (100 mM HEPES, 100 mM NaCl, 10 mM MgSO4, pH 8.0) and monitoring the decrease in absorbance at 265 nm (NAI) or 275 nm (FAI). Three parameter pseudo-first order exponential decay kinetics are fit using OriginPro 8.0 software using the equation: f=y0+a*exp(−b*x)
# 5S rRNA [8] = assay: Acylation of RNA in E. coli cells; format: cell-based, Escherichia coli
# Experimental: Acylation of RNA in E. coli cells. […] E. coli cells are grown to an OD600 of 0.25 at 37° C. in […]. Cells are spun down at 4000×g and decanted. […] Cells are resuspended in a final volume of a fresh solution of 800 μl 0.5 mg/ml lysozyme, TE pH 8.0. 80 μl of 10% SDS is added to the mixture and the slurry is placed at 64° C. for 1-2 min. After incubation add 88 μl 1 M NaOAc, pH5.2 is added. The samples are added to an equal volume (1 ml) of water-saturated phenol (pH <7.0) and incubated at 64° C. for 6 min. The resultant slurry is spun at max speed (14,000 rpm) for 10 min at 4° C. […] Reverse transcription primer used for E. coil 5S rRNA: 5′-[…] (SEQ ID NO: 10).
# as §1
# [9] = system: U1 snRNA, U2 snRNA, SNORD3A; assay: Acylation of nuclear RNAs in HeLa S3 cells; format: cell-based, Homo sapiens; conditions: HeLa S3, 200 mM final, thirty minutes
# Experimental: Cells are then spun down and decanted. […] NO: 12). […] NO:7) (SEQ ID NO:13). […] NO:14). […] Extensions are performed for ten minutes.
# 5S rRNA [10] = format: cell-based, Drosophila melanogaster; conditions: Drosophila S2 cells
# Experimental: as §2
Compound,"Result (qualitative: reactivity toward ATP, hydrolysis, solubility) (ATP [1])",Sites of modification mapped to predicted secondary structure (human 5S rRNA),Mapping of RNA secondary structure (HOTAIR),maximum solubility (Solubility) [mM],Retained reactivity in aqueous buffer (ATP [2]),5S rRNA modification in cells (5S rRNA [3]),5S rRNA modification in cells (5S rRNA [4]),"Time at which modification signal begins to plateau (5S rRNA [5]; 100 mM NAI, murine ESCs) [min]","Time to 5S rRNA modification with suitable signal-to-noise ratio (5S rRNA [5]; 100 mM NAI, murine ESCs)","5S rRNA modification in cells (reverse transcription blocks) (5S rRNA [5]; live mouse ESC, aqueous buffer)","Extent of modification in cells, comparison of probes (5S rRNA [5]; same concentration)",Retained reactivity with ATP in aqueous buffer (ATP [6]),b (pseudo-first order exponential decay constant of hydrolysis) [7],"Cell attachment, morphology and trypan blue staining (V6.5 mESCs)",5S rRNA modification in cells (5S rRNA [8]),"Modification of nuclear, lower abundant RNAs [9]",5S rRNA modification in cells (5S rRNA [10])
N#CC(=O)OCc1ccccc1,"Too Reactive, High Hydrolysis",–,–,–,–,–,–,–,–,–,–,–,–,–,–,–,–
"Cn1c(=O)oc(=O)c2ccccc21 [NMIA, N-methylisotoic anhydride]",–,map to residues that are predicted to be flexible,successfully mapped the predicted secondary structure of the 5′ end of HOTAIR,13,mostly quenched after thirty minutes,–,–,–,–,–,–,–,–,–,–,–,–
"Cc1ncccc1C(=O)n1ccnc1 [NAI, 2-methylnicotinic acid imidizolide]",–,map to residues that are predicted to be flexible,–,–,–,modifies 5S rRNA,modifies 5S rRNA,≤ 15,in as little as one minute,caused blocks in subsequent reverse transcription,greater extent of modification than FAI,retain reactivity with ATP at 120 minutes,.020476,"remained attached to tissue culture vessel, appeared morphologically normal and unstained by trypan blue",modifies 5S rRNA,"modifies nuclear, lower abundant RNAs",modifies 5S rRNA
